Patent publication US20250250264A1, “KIF18A INHIBITOR AND USE THEREOF” (Wuhan Humanwell Innovative Drug Research and Development …, priority 2022, published 2025)

Experiments:
[1] = test system: NIH:OVCAR-3 cells; assay: Assay on inhibition of OVCAR3 tumor cell proliferation (CellTiter-Glo); format: cell-based; conditions: Homo sapiens, OVCAR-3, 72 h, 3 days of drug treatment, read-out: IC50 (μM), inhibitory effects of compounds on tumor cell proliferation
Procedure: NIH:OVCAR-3 cells (ATCC, Cat No. HTB-161, purchased from Co-Bier) were seeded into a T75 culture flask and cultured in an RPMI 1640 medium containing 20% FBS for 3 days in preparation for subsequent culturing and seeding into a 96-well plate for the cell proliferation assay.
The OVCAR3 cells were seeded at a density of 3000 cells/100 μL/well into the 96-well cell plate, and then the plate was incubated in an incubator (37° C., 5% CO2) for 18 h. On the second day, drug treatment was started. Serially diluted test compound solutions (each drug starting at a concentration of 10 μM, diluted in DMSO, with a dilution ratio of 1:3, and nine gradient points for each drug) or DMSO (negative control) was added to the medium in the plate at 100 μL/well, and a blank group was set up with only medium, but no seeded cell strains. After the drug addition, the plate was incubated in the incubator for another 3 days (37° C., 5% CO2). On the fourth day, plate detection was performed. To each well, 100 μL of CellTiter-Glo reagent (Promega G9243) was added. The plate was shaken for 5 min and then left to stand at room temperature for 5 min. The chemical luminescence signal value of each well was determined using a microplate reader (PerkinElmer EnVision®2104). Cell proliferation inhibition rate=(1−(compound group−blank group)/(DMSO group−blank group))×100%. Then, the IC50 value of each compound was calculated using the GraphPad Prism 8 software.

[2] = biological target: recombinant protein KIF18A (kinesin domain: aa 1-467) (Homo sapiens (Human), UniProt Q8NI77); assay: Assay on inhibition of KIF18A enzymatic activity (ADP-Glo); format: biochemical; conditions: KIF18A 80 nM, ATP 80 μM, 3 h at room temperature, ADP-Glo luminescence; read-out: IC50 (μM), inhibitory effects of compounds on KIF18A enzymatic activity
Source text: The recombinant protein KIF18A (kinesin domain: aa 1-467) used in this assay was expressed by the Bac-to-Bac baculovirus expression system from Invitrogen, and the resulting protein was purified for use in this assay (Seki, M. et al. 2003 Nucleic Acids Res.). Quantitative detection of KIF18A enzymatic activity was completed using an ADP-Glo™ kinase assay kit (Promega Inc). Related procedures strictly followed the product instructions, which are briefly described as follows:
The reaction system consisted of a test compound, the recombinant protein KIF18A (aa 1-467), ATP (Promega Inc), and an assay buffer. The test compound was prepared into a 0.5 mM stock solution using DMSO (Sigma Inc) and then serially diluted in DMSO. The assay buffer consisted of an aqueous solution of 15 mM Tris, 10 mM MgCl2 (Sigma Inc), 0.01% Pluronic F-68 (Life Technologies Inc), 1 μM paclitaxel (Cytoskeleton Inc), 30 μg/mL porcine tubulin (Cytoskeleton Inc), and 2% DMSO. The KIF18A protein (final concentration: 80 nM) and the compound at different concentrations (1 μL) were added to the prepared assay buffer (50 μL), and the mixture was incubated at room temperature for 15 min. Then, ATP (final concentration: 80 μM) was added to the reaction mixture, and the resulting mixture was incubated at room temperature for 3 h. After the reaction was completed, 5 μL of the ADP-Glo™ reagent and 2.5 μL of the reaction mixture were added to a 384-well plate (Grenier Inc). The resulting mixture was mixed homogeneously, then sealed by an aluminum foil sealing film, and incubated at room temperature in the dark for 40 min. Finally, 10 μL of the […] was added to each reaction well, and the mixture was incubated at room temperature in the dark for 40 min. After all reactions were completed, the luminescence values of the wells were read on a microplate reader (Molecular Device_SpectraMax Id5), and the inhibition ratios were calculated. The calculation formula for the inhibition rates was as follows: inhibition rate=(1−(compound group−blank group)/(negative control group−blank group))×100%. Then, based on the inhibition rates at different compound concentrations, the IC50 value of the test compound was calculated using the GraphPad Prism 8 software.

recombinant protein KIF18A (kinesin domain: aa 1-467), sequence (Q8NI77 1-467): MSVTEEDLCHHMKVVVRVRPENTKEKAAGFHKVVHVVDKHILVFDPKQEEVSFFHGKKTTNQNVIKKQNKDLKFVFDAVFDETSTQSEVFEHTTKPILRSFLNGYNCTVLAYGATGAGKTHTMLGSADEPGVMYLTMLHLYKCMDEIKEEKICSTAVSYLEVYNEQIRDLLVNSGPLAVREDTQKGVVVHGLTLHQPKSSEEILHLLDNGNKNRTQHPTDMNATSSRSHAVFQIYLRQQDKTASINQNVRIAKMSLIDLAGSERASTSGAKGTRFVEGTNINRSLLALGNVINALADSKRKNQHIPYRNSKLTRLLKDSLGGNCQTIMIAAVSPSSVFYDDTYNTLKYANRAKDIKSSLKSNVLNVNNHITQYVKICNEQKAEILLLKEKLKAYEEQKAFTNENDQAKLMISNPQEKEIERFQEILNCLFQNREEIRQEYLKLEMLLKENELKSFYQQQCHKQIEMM
recombinant protein KIF18A (kinesin domain: aa 1-467), sequence (P02550 whole entry partner, the tested form may be a part): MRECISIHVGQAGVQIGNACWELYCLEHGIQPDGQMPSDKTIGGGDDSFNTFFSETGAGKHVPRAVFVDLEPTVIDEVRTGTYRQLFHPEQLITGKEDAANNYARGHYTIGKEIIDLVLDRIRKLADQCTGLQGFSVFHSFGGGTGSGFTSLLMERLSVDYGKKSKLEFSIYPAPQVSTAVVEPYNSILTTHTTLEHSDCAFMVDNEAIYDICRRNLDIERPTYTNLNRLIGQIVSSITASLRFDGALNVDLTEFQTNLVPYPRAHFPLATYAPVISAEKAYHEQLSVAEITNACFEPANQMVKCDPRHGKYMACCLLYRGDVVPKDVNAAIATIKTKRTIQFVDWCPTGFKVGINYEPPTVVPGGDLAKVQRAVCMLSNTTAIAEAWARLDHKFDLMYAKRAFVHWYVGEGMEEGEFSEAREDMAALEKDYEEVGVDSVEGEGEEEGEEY
recombinant protein KIF18A (kinesin domain: aa 1-467), sequence (P02554 whole entry partner, the tested form may be a part): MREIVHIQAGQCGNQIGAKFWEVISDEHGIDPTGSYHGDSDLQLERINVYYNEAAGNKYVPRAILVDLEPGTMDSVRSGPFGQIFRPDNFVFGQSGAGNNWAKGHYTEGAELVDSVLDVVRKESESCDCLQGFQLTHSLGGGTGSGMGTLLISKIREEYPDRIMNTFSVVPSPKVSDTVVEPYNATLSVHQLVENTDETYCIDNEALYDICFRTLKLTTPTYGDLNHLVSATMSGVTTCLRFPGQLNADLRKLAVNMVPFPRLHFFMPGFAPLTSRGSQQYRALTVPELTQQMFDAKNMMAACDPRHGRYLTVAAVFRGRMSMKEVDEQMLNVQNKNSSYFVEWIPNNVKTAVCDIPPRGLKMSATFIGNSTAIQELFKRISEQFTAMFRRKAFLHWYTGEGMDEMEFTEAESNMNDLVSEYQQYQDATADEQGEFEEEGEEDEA

SMILES | IC50 [1] [µM] | IC50 [2] [µM]
O=S(=O)(CCO)Nc1ccc(-n2cc(-c3nc(N4CCC(F)(F)CC4)ncc3F)cn2)c(N2CCC3(CC2)CC3)c1 [Example I-129, N-(4-(4-(2-(4,4-Difluoropiperidin-1-yl)-5-fluoropyrimidin-4-yl)-1H-pyrazol-1-yl)-3-(6-azaspiro[2.5]octan-6-yl)phenyl)-2-hydroxyethane-1-sulfonamide] | 0.148 | 0.009
Cc1cc(-c2cnn(-c3ccc(NS(=O)(=O)CCO)cc3N3CCC4(CC3)CC4)c2)nc(N2CC3C(C2)C3(F)F)n1 (centres unmarked) [Example I-113, N-(4-(4-(2-(6,6-Difluoro-3-azabicyclo[3.1.0]hexan-3-yl)-6-methylpyrimidin-4-yl)-1H-pyrazol-1-yl)-3-(6-azaspiro[2.5]octan-6-yl)phenyl)-2-hydroxyethane-1-sulfonamide] | 0.051 | 0.007
Cc1cc(-c2cnn(-c3ccc(NS(=O)(=O)[C@H](C)CO)cc3N3CCC4(CC3)CC4)c2)nc(N2CCC(F)(F)CC2)n1 [Example I-111, (R)—N-(4-(4-(2-(4,4-Difluoropiperidin-1-yl)-6-methylpyrimidin-4-yl)-1H-pyrazol-1-yl)-3-(6-azaspiro[2.5]octan-6-yl)phenyl)-1-hydroxypropane-2-sulfonamide] | 0.073 | 0.005
Cc1cc(-c2cnn(-c3ccc(NS(=O)(=O)CCO)cc3N3CCC4(CC3)CC4)c2)nc(N2CCC(F)CC2)n1 [Example I-114, N-(4-(4-(2-(4-Fluoropiperidin-1-yl)-6-methylpyrimidin-4-yl)-1H-pyrazol-1-yl)-3-(6-azaspiro[2.5]octan-6-yl)phenyl)-2-hydroxyethane-1-sulfonamide] | 0.076 | 0.007
Cc1cc(-c2nnc(-c3ccc(NS(=O)(=O)CCO)cc3N3CCC4(CC3)CC4)o2)nc(N2CC3C(C2)C3(F)F)n1 (centres unmarked) [Example I-88, N-(4-(5-(2-(6,6-Difluoro-3-azabicyclo[3.1.0]hexan-3-yl)-6-methylpyrimidin-4-yl)-1,3,4-oxadiazol-2-yl)-3-(6-azaspiro[2.5]octan-6-yl)phenyl)-2-hydroxyethane-1-sulfonamide] | 0.015 | 0.001
Cc1cc(-c2cnn(-c3ccc(NS(=O)(=O)CCO)cc3N3CCC(F)(F)CC3)c2)nc(N2CCC(F)(F)CC2)n1 [Example I-106, N-(3-(4,4-Difluoropiperidin-1-yl)-4-(4-(2-(4,4-difluoropiperidin-1-yl)-6-methylpyrimidin-4-yl)-1H-pyrazol-1-yl)phenyl)-2-hydroxyethane-1-sulfonamide] | 0.208 | 0.011
Cc1cc(-c2cnn(-c3ccc(NS(=O)(=O)CCO)cc3N3CCC4(CC3)CC4)c2)nc(C2CCC(F)(F)CC2)n1 [Example I-110, N-(4-(4-(2-(4,4-Difluorocyclohexyl)-6-methylpyrimidin-4-yl)-1H-pyrazol-1-yl)-3-(6-azaspiro[2.5]octan-6-yl)phenyl)-2-hydroxyethane-1-sulfonamide] | 0.061 | 0.002
